Key:
[1] = target: T1, BRG-1 (Homo sapiens, UniProt P51532); experiment: ATPase catalytic activity assay (ADP-Glo), BRG-1; type: biochemical; details: Table 10, read-out: BRG1 IC50
T1 construct: made in house; host or cells: High Five insect cells
How it was run: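 BRG-1 ATPase activity was measured by ADP-Glo. Unconsumed ATP was depleted for 40 min at room temperature, then ADP was converted to ATP for 60 min and read as luminescence.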

[2] = target: T2, BRM (Homo sapiens, UniProt P51531); experiment: ATPase catalytic activity assay (ADP-Glo), BRM; type: biochemical; details: Table 10; for Ratio (BRG1 IC50 (μM) divided by BRM IC50 (μM)): ATPase assay, selectivity BRG1/BRM; for IC50: ATPase catalytic activity assay (ADP-Glo)
T2 construct: made in house; host or cells: High Five insect cells
How it was run: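 Reaction holds 30 nM BRM, 20 nM salmon sperm DNA and 400 μM ATP in 20 mM Tris pH 8, 20 mM MgCl2, 50 mM NaCl, 0.1% Tween-20, 1 mM DTT. Incubated 1 h at room temperature. ADP formed is detected by ADP-Glo luminescence.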

T2 sequence (P51531 whole entry): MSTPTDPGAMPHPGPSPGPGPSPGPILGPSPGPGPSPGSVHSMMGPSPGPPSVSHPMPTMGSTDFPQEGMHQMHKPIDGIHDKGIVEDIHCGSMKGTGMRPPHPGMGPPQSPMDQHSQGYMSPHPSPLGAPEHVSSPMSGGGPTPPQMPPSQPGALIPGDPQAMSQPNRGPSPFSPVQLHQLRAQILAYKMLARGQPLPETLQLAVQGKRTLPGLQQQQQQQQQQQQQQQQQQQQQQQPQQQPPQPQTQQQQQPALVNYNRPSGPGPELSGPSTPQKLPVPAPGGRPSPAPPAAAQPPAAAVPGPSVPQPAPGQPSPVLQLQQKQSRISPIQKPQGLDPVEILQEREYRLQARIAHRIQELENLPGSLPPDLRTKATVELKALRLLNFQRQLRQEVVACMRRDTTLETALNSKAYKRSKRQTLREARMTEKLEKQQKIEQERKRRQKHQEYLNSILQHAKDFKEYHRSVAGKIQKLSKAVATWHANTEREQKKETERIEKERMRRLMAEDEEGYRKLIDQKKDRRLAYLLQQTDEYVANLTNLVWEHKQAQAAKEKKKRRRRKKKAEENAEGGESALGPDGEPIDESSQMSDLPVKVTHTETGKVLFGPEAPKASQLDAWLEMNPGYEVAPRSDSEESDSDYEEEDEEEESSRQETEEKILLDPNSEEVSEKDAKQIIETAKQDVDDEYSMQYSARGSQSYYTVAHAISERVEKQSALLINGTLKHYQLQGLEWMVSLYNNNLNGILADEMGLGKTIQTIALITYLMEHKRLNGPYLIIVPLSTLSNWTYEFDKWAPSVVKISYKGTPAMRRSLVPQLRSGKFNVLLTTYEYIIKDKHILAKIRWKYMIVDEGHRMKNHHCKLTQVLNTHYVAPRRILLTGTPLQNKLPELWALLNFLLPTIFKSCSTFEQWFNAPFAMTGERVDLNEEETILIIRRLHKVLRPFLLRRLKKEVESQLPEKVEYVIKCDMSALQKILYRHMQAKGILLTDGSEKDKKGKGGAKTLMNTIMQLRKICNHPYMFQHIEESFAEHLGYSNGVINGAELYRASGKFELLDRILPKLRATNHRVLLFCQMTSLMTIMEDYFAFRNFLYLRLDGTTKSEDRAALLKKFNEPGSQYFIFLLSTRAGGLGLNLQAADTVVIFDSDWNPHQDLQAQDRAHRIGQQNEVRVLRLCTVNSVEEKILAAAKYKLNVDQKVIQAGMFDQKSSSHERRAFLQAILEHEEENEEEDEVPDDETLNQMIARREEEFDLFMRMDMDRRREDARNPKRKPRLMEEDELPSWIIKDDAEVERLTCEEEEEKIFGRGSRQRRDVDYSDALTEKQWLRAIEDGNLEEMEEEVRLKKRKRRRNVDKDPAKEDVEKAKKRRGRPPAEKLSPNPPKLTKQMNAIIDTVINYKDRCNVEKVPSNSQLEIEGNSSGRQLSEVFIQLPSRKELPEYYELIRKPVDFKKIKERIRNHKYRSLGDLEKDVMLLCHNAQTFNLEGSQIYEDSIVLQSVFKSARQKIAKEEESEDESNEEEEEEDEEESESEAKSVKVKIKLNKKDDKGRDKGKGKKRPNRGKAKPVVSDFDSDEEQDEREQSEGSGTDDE
T1 sequence (P51532 whole entry): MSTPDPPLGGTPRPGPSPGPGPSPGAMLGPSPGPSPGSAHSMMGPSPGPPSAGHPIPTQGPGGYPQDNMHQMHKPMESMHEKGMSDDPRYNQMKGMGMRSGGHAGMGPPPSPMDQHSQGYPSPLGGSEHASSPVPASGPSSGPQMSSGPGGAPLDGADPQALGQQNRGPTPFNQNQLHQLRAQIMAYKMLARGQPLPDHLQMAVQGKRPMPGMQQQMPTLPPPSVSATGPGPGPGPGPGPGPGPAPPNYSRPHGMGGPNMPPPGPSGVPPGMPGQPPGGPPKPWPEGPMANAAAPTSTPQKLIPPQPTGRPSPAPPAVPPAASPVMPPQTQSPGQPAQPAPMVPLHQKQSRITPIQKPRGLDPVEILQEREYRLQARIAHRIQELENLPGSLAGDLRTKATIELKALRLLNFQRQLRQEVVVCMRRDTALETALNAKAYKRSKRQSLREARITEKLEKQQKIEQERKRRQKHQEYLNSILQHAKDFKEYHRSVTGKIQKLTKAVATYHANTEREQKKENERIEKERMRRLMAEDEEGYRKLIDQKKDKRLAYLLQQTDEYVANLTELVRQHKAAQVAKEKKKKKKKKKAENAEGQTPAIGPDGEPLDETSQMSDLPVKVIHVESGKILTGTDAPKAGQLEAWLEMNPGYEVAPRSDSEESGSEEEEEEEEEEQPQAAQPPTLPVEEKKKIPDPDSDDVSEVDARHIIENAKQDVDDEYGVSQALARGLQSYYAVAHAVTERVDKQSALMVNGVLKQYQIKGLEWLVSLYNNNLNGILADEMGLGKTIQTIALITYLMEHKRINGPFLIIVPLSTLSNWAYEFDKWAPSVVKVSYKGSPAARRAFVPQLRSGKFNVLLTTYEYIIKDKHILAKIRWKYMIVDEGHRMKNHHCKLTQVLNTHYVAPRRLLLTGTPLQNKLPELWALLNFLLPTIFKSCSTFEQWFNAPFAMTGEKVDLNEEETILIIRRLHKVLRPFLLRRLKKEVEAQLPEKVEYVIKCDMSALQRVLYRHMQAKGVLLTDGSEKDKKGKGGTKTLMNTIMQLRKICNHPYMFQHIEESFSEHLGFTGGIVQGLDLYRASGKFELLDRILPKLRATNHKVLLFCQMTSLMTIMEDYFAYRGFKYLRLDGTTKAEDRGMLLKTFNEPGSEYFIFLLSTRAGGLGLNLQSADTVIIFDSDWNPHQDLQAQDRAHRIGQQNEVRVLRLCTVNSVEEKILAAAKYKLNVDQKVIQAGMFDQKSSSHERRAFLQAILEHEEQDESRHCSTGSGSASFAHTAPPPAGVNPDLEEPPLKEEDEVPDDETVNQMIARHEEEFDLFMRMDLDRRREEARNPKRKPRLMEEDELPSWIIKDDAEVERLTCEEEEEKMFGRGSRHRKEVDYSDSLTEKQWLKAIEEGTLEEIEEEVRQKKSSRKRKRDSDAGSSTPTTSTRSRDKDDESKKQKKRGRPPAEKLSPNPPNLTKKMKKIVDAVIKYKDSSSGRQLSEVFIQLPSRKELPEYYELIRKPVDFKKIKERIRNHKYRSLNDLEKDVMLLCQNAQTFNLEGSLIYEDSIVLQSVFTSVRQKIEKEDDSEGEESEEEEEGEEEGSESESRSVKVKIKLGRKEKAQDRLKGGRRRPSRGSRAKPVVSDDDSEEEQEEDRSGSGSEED

IC50 [1] [nM] | Ratio (BRG1 IC50 (μM) divided by BRM IC50 (μM)) [2] | IC50 [2] [nM] | Structure (SMILES)
101 | 11.56 | 8.7 | O=C(NCc1cc2nc(N3CCOc4cc(C(F)(F)F)cnc43)ccc2cn1)c1cc(F)c2c(c1)S(=O)(=O)[C@@H](F)CCO2 [Compound 265]
160 | 21.61 | 7.4 | C[C@@H]1CCN1c1cnc2c(c1)CCCN2c1ccc2cnc(CNC(=O)c3cc(F)c4c(c3)S(=O)(=O)[C@@H](F)CCO4)cc2n1 [Compound 236]
114 | 11.58 | 9.9 | CN(C)c1ccnc2c1OCCN2c1ccc2cnc(CNC(=O)c3cc(F)c4c(c3)S(=O)(=O)[C@@H](F)CCO4)cc2n1 [Compound 296]
98.3 | 24.03 | 4.1 | Cc1ccc(-c2ccc3cnc(CNC(=O)c4cc(F)c5c(c4)S(=O)(=O)[C@@H](F)CCO5)cc3n2)c(OC(F)F)n1 [Compound 120]
51.2 | 17.70 | 3.2 | O=C(NCc1cc2nc(N3CCOc4ccc(N5CC[C@@H](F)C5)nc43)ccc2cn1)c1cc(F)c2c(c1)S(=O)(=O)[C@@H](F)CCO2 [Compound 86]
146 | 29.09 | 5.7 | COc1ccc(-c2ccc3cnc(CNC(=O)c4cc(F)c5c(c4)S(=O)(=O)[C@@H](F)CCO5)cc3n2)nc1C1CC1 [Compound 181]
86.7 | 17.08 | 5.1 | COc1cc(F)ccc1-c1ccc2cnc(CNC(=O)c3cc(F)c4c(c3)S(=O)(=O)[C@@H](F)CCO4)cc2n1 [Compound 158]
84.6 | 14.25 | 6 | COc1nc(C(F)F)ccc1-c1ccc2cnc(CNC(=O)c3ccc4c(c3)S(=O)(=O)[C@@H](F)CO[C@H]4C)cc2n1 [Compound 197]
29.8 | 11.59 | 2.6 | C[C@@H]1CN(c2cccc(-c3ccc4cnc(CNC(=O)c5cc(C(F)F)c6c(c5)S(=O)(=O)[C@@H](F)CCO6)cc4n3)n2)C[C@H](C)O1 [Compound 64]
106 | 14.90 | 7.1 | [2H]C([2H])([2H])Oc1nscc1-c1ccc2cnc(CNC(=O)c3cc(F)c4c(c3)S(=O)(=O)[C@@H](F)CCO4)cc2n1 [Compound 226]
80.1 | 26.00 | 2.8 | COc1nc(C(C)(F)F)ccc1-c1ccc2cnc(CNC(=O)c3cc(F)c4c(c3)S(=O)(=O)[C@@H](F)COC4)cc2n1 [Compound 75]
83.1 | 17.66 | 4.7 | [2H]C1([2H])OC[C@H](F)S(=O)(=O)c2cc(C(=O)NCc3cc4nc(N5CCOc6ccc(C(F)F)nc65)ccc4cn3)cc(F)c21 [Compound 140]
24.6 | 13.44 | 2 | O=C(NCc1cc2nc(N3CCOc4ccc(C5CC5)nc43)ccc2cn1)c1ccc2c(c1)S(=O)(=O)[C@@H](F)COC2 [Compound 39]
43.4 | 12.05 | 3.6 | [2H]C([2H])([2H])Oc1nc(C(F)F)ccc1-c1ccc2cnc(CNC(=O)c3cc(F)c4c(c3)S(=O)(=O)[C@@H](F)COC4)cc2n1 [Compound 103]
99.7 | 21.45 | 4.7 | COc1nc(C(F)F)ccc1-c1ccc2cnc(CNC(=O)c3cc(F)c4c(c3)S(=O)(=O)[C@@H](F)COC4)cc2c1 [Compound 137]
106 | 11.58 | 9.2 | COc1ccc(-c2ccc3cnc(CNC(=O)c4cc(F)c5c(c4)S(=O)(=O)[C@@H](F)COC5)cc3n2)nc1[C@H]1CC1(F)F [Compound 280]
124 | 35.69 | 2.5 | O=C(NCc1cc2nc(N3CCOc4ccc(C5CC5)nc43)ccc2cn1)c1cc(F)c2c(c1)S(=O)(=O)[C@@H](F)CCO2 [Compound 55]
79.5 | 15.00 | 5.3 | O=C(NCc1cc2nc(N3CCCc4cc(N5C[C@@H](F)[C@H](F)C5)cnc43)ccc2cn1)c1cc(F)c2c(c1)S(=O)(=O)[C@@H](F)CCO2 [Compound 168]
44.8 | 13.01 | 3.5 | Cc1cc(C(=O)NCc2cc3nc(-c4cccc(N5C[C@@H](C)O[C@@H](C)C5)n4)ccc3cn2)cc2c1OCC[C@H](F)S2(=O)=O [Compound 100]

IC50 [1] [nM] | Ratio (BRG1 IC50 (μM) divided by BRM IC50 (μM)) [2] | IC50 [2] [nM] | Structure (SMILES)
89.1 | 19.04 | 4.7 | C[C@H]1[C@H](F)CN1c1cnc2c(c1)OCCN2c1ccc2cnc(CNC(=O)c3cc(F)c4c(c3)S(=O)(=O)[C@@H](F)CCO4)cc2n1 [Compound 142]
175 | 18.66 | 10 | COc1nc(-c2ccc3cnc(CNC(=O)c4cc(Cl)c5c(c4)S(=O)(=O)[C@@H](F)COC5)cc3n2)ccc1C(F)F [Compound 301]
42.2 | 10.33 | 4.1 | O=C(NCc1cc2nc(N3CCOc4ccc(N5CCC(F)(F)C5)nc43)ccc2cn1)c1cc(F)c2c(c1)S(=O)(=O)[C@@H](F)CCO2 [Compound 119]
34.4 | 12.12 | 3 | C[C@@H]1CN(c2cccc(-c3ccc4cnc(CNC(=O)c5cc(Cl)c6c(c5)S(=O)(=O)[C@@H](F)COC6)cc4n3)n2)C[C@H](C)O1 [Compound 79]
1470 | 12.17 | 120 | C[C@@H]1CN(c2cccc(-c3ccc4cnc(CNC(=O)c5cc(F)c6c(c5)S(=O)(=O)[C@H](F)C[C@H](C)O6)cc4n3)n2)C[C@H](C)O1 [Compound 34, (2S,4S)—N-((2-(6-((2S,6R)-2,6-dimethylmorpholino)pyridin-2-yl)-1,6-naphthyridin-7-yl)methyl)-4,9-difluoro-2-methyl-3,4-dihydro-2H-benzo[b][1,4]oxathiepine-7-carboxamide 5,5-dioxide]
723 | 29.97 | 24.1 | COc1nc([C@@H](C)C(F)F)ccc1-c1ccc2cnc(CNC(=O)c3cc(F)c4c(c3)S(=O)(=O)[C@@H](F)CCO4)cc2n1 [Compound 328]
1180 | 30.39 | 32.2 | COc1cccc(-c2ccc3cnc(CNC(=O)c4cc(Cl)c5c(c4)S(=O)(=O)[C@@H](F)CCO5)cc3n2)n1 [Compound 322]
15.7 | 11.90 | 1.3 | COCc1cc2c(c(F)c1Cl)N(c1ccc3cnc(CNC(=O)c4cc(F)c5c(c4)S(=O)(=O)[C@@H](F)CCO5)cc3n1)CCO2 [Compound 10]
35 | 22.36 | 1.8 | CCOc1nc(C(F)F)ccc1-c1ccc2cnc(CNC(=O)c3cc(F)c4c(c3)S(=O)(=O)[C@@H](F)COC4)cc2n1 [Compound 29]
207 | 34.29 | 5.6 | O=C(NCc1cc2nc(N3CCCc4sc(C5CC5)nc43)ccc2cn1)c1cc(F)c2c(c1)S(=O)(=O)[C@@H](F)CCO2 [Compound 178]
226 | 23.12 | 9.8 | COc1nc(CC(F)F)ccc1-c1ccc2cnc(CNC(=O)c3cc(F)c4c(c3)S(=O)(=O)[C@@H](F)CCO4)cc2n1 [Compound 292]
95.7 | 25.97 | 3.1 | [2H]C1([2H])Oc2c(F)cc(C(=O)NCc3cc4nc(-c5ccc(C(F)F)nc5OC)ccc4cn3)cc2S(=O)(=O)[C@@]([2H])(F)C1([2H])[2H] [Compound 84]
83.9 | 21.12 | 4 | O=C(NCc1cc2nc(N3CCOc4c(OCC5CC5)ccnc43)ccc2cn1)c1cc(F)c2c(c1)S(=O)(=O)[C@@H](F)CCO2 [Compound 113]
33 | 18.05 | 1.8 | O=C(NCc1cc2nc(N3CCOc4cc(N5CC[C@H]5CF)cnc43)ccc2cn1)c1cc(F)c2c(c1)S(=O)(=O)[C@@H](F)CCO2 [Compound 31]
171 | 22.99 | 8 | O=C(NCc1cc2nc(-c3cccc([C@@H]4CC4(F)F)n3)ccc2cn1)c1cc(F)c2c(c1)S(=O)(=O)[C@@H](F)COC2 [Compound 253]
132 | 14.41 | 9.1 | O=C(NCc1cc2nc(N3CCOc4cc(N5CC6CC6C5)cnc43)ccc2cn1)c1cc(F)c2c(c1)S(=O)(=O)[C@@H](F)CCO2 (stereo partly drawn) [Compound 276]
72.9 | 15.71 | 4.8 | O=C(NCc1cc2nc(N3CCOc4cc(C56CC(C5)C6)cnc43)ccc2cn1)c1cc(F)c2c(c1)S(=O)(=O)[C@@H](F)COC2 [Compound 146]
76.3 | 16.19 | 4.7 | O=C(NCc1cc2cc(N3CCOc4cc(C5CC5)cnc43)ccc2cn1)c1cc(F)c2c(c1)S(=O)(=O)[C@@H](F)CCO2 [Compound 141]
10.9 | 9.64 | 1.1 | C[C@@H]1CN(c2cccc(-c3ccc4cnc(CNC(=O)c5cc(F)c6c(c5)S(=O)(=O)[C@H](F)CCCO6)cc4n3)n2)C[C@H](C)O1 [Compound 5]
